# Measurements from US9480259B2, “Pyrazolopyrans having herbicidal and pharmaceutical properties” (BASF SE, priority 2012, dated 2016).
# pEC50: −log10 of the molar value.
# Biological target: Arabidopsis thaliana SHMT
# Experiment: SHMT activity assay (ED50 SHMT), coupled with N5,N10-CH2-THF dehydrogenase, NADH at 340 nm
# Assay type: biochemical
# Conditions: Arabidopsis thaliana SHMT enzyme assay; values given as upper bounds
# In short: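 His-tagged SHMT purified on Ni-NTA. NADH formation followed at 340 nm for 30 min; ED50 from inhibition of initial velocity.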
row,SMILES,pEC50
1,COC(=O)CCS(=O)(=O)N(C)c1cc(C#N)cc(C2(C3CCC3)C(C#N)=C(N)Oc3[nH]nc(C)c32)c1 (stereo not shown) [Compound 2.723],> 7.00
2,Cc1n[nH]c2c1C(c1cc(CCCc3nnn[nH]3)cc(-c3nnn[nH]3)c1)(C(C)C)C(C#N)=C(N)O2 (stereo not shown) [Compound 2.715],> 6.00
3,Cc1n[nH]c2c1C(c1cc(C#N)cc(N(C)CCCC(=O)O)c1)(C1CCC1)C(C#N)=C(N)O2 (stereo not shown) [Compound 2.695],> 7.00
4,Cc1n[nH]c2c1C(c1cc(Cl)cc(N(C)C(=O)CCCc3nnn[nH]3)c1)(C1CCC1)C(C#N)=C(N)O2 (stereo not shown) [Compound 2.701],> 7.00
5,Cc1n[nH]c2c1C(c1cc(Br)cc(Br)c1)(C(C)F)C(C#N)=C(N)O2 (stereo not shown) [Compound 2.685],> 8.00
6,Cc1n[nH]c2c1C(c1cc(C#N)cc(N(C)S(=O)(=O)CC(=O)O)c1)(C(C)C)C(C#N)=C(N)O2 (stereo not shown) [Compound 2.732],> 7.00
7,Cc1n[nH]c2c1C(c1cc(Cl)cc(N(C)C(=O)CCc3nnn[nH]3)c1)(C1CCC1)C(C#N)=C(N)O2 (stereo not shown) [Compound 2.698],> 7.00
8,Cc1n[nH]c2c1C(c1cc(C#N)cc(N(C)C(=O)CCCc3nnn[nH]3)c1)(C(C)C)C(C#N)=C(N)O2 (stereo not shown) [Compound 2.722],> 7.00
9,Cc1n[nH]c2c1C(c1ccc(CC#N)c(-c3nnn[nH]3)c1)(C1CCC1)C(C#N)=C(N)O2 (stereo not shown) [Compound 2.708],> 5.00
10,Cc1n[nH]c2c1C(c1cc(CCCC#N)cc(-c3nnn[nH]3)c1)(C(C)C)C(C#N)=C(N)O2 (stereo not shown) [Compound 2.711],> 7.00
11,Cc1n[nH]c2c1C(c1cc(-c3nnn[nH]3)cc(N(C)CCC#N)c1)(C1CCC1)C(C#N)=C(N)O2 (stereo not shown) [Compound 2.692],> 6.00

# Same assay, conditions: Table 2, Arabidopsis thaliana SHMT enzyme assay; values given as upper bounds
row,SMILES,pEC50
1,Cc1n[nH]c2c1C(c1ccc(Cl)c(OC(F)(F)F)c1)(C1CCC1)C(C#N)=C(N)O2 (stereo not shown) [Compound 2.289],> 8.00
2,N#CC1=C(N)Oc2[nH]ncc2C1(c1ccc(C(F)(F)F)c(C(F)(F)F)c1)C1CCC1 (stereo not shown) [Compound 2.302],> 8.00
3,COc1ccc(C2(C3(F)CC3)C(C#N)=C(N)Oc3[nH]nc(C)c32)cc1Cl (stereo not shown) [Compound 2.260],> 8.00
4,Cc1n[nH]c2c1C(c1cc(Br)cc(C(F)(F)F)c1)(C1CCC1)C(C#N)=C(N)O2 (stereo not shown) [Compound 2.233],> 8.00
5,N#CC1=C(N)Oc2[nH]ncc2C1(c1cc(C#N)cc(-c2cscn2)c1)C1CCC1 (stereo not shown) [Compound 2.352],> 7.00
6,N#CC1=C(N)Oc2[nH]ncc2C1(c1cc(C#N)cc(-c2nccs2)c1)C1CCC1 (stereo not shown) [Compound 2.351],> 8.00
7,COc1ccc(C2(C3CCCC3)C(C#N)=C(N)Oc3[nH]ncc32)cc1Cl (stereo not shown) [Compound 2.254],> 5.00
8,Cc1n[nH]c2c1C(c1cc(C#N)cc(-c3cccnc3)c1)(C1CCC1)C(C#N)=C(N)O2 (stereo not shown) [Compound 2.350],> 8.00
9,CCOc1n[nH]c2c1C(c1cc(C#N)cc(C(F)(F)F)c1)(C1CC1)C(C#N)=C(N)O2 (stereo not shown) [Compound 2.393],> 6.00
10,N#CC1=C(N)Oc2[nH]ncc2C1(c1ccc(Cl)c(OC(F)(F)F)c1)C1CCC1 (stereo not shown) [Compound 2.290],> 7.00
11,N#CC1=C(N)Oc2[nH]ncc2C1(c1cc(C#N)cc(-c2ccccn2)c1)C1CCC1 (stereo not shown) [Compound 2.348],> 8.00
12,N#CC1=C(N)Oc2[nH]ncc2C1(c1cc(Cl)cc(-c2cscn2)c1)C1CCC1 (stereo not shown) [Compound 2.339],> 7.00
13,N#CC1=C(N)Oc2[nH]ncc2C1(c1cc(Br)cc(Br)c1)C1CC=CC1 (stereo not shown) [Compound 2.301],> 7.00
14,Cc1n[nH]c2c1C(c1cc(C#N)cc(-c3nnn[nH]3)c1)(C1CCC1)C(C#N)=C(N)O2 (stereo not shown) [Compound 2.357],> 7.00
15,COc1n[nH]c2c1C(c1cc(Cl)cc(Cl)c1)(C(C)C)C(C#N)=C(N)O2 (stereo not shown) [Compound 2.378],> 8.00
16,CCOc1n[nH]c2c1C(c1cc(C#N)cc(C#N)c1)(C1CCC1)C(C#N)=C(N)O2 (stereo not shown) [Compound 2.397],> 7.00

# Same assay, conditions: Table 2; values given as upper bounds
row,SMILES,pEC50
1,Cc1n[nH]c2c1C(c1cc(C#N)cc(OCc3nnn[nH]3)c1)(C1CCC1)C(C#N)=C(N)O2 (stereo not shown) [Compound 2.475],> 8.00
2,Cc1n[nH]c2c1C(c1cc(Cl)cc(-c3cccc(F)c3)c1)(C1CC1)C(C#N)=C(N)O2 (stereo not shown) [Compound 2.187.],> 7.00
3,Cc1n[nH]c2c1C(c1ccc(Cl)cc1)(C(F)(F)C(F)(F)F)C(C#N)=C(N)O2 (stereo not shown) [Compound 2.96.],> 6.00
4,Cc1n[nH]c2c1C(c1cc(O)cc(Cl)c1)(C1CCC1)C(C#N)=C(N)O2 (stereo not shown) [Compound 2.508],> 5.00
5,Cc1n[nH]c2c1C(CCC#N)(c1cccc(Cl)c1)C(C#N)=C(N)O2 (stereo not shown) [Compound 2.100.],> 5.00
6,CCC(=O)Nc1ccc(C2(CC)C(C#N)=C(N)Oc3[nH]nc(C)c32)cc1 (stereo not shown) [Compound 2.81.],> 6.00
7,Cc1n[nH]c2c1C(CC(C)C)(c1ccc(Cl)c(Cl)c1)C(C#N)=C(N)O2 (stereo not shown) [Compound 2.141.],> 6.00
8,CCCCCCc1n[nH]c2c1C(CC)(c1cccc(Cl)c1)C(C#N)=C(N)O2 (stereo not shown) [Compound 2.197.],> 6.00
9,COc1c(Br)cc(C2(C3CCC3)C(C#N)=C(N)Oc3[nH]nc(C)c32)cc1C#N (stereo not shown) [Compound 2.492],> 8.00
10,Cc1n[nH]c2c1C(c1cc(Cl)cc(N3CCOCC3)c1)(C1CCC1)C(C#N)=C(N)O2 (stereo not shown) [Compound 2.488],> 8.00
11,COC(=O)c1cc(F)cc(-c2cc(C#N)cc(C3(C4CCC4)C(C#N)=C(N)Oc4[nH]nc(C)c43)c2)c1 (stereo not shown) [Compound 2.513],> 8.00
12,Cc1n[nH]c2c1C(c1ccc(OCc3ccccc3)c(Cl)c1)(C(C)C)C(C#N)=C(N)O2 (stereo not shown) [Compound 2.185.],> 7.00
13,CCC1(c2ccc(OS(=O)(=O)c3ccc(Cl)c(Cl)c3)c(C)c2)C(C#N)=C(N)Oc2[nH]nc(C)c21 (stereo not shown) [Compound 2.56.],> 5.00
14,CCC1(c2cc(Cl)cc(C#N)c2)C(C#N)=C(N)Oc2[nH]nc(COC)c21 (stereo not shown) [Compound 2.587],> 6.00
15,COC(=O)c1cc(Cl)cc(-c2cc(C#N)cc(C3(C4CCC4)C(C#N)=C(N)Oc4[nH]nc(C)c43)c2)c1 (stereo not shown) [Compound 2.517],> 8.00
16,Cc1n[nH]c2c1C(c1cc(C#N)cc(-c3cc(C(=O)O)cc(C(F)(F)F)c3)c1)(C1CCC1)C(C#N)=C(N)O2 (stereo not shown) [Compound 2.644],> 8.00
17,Cc1n[nH]c2c1C(c1cccc(-c3ccc(C(=O)O)cc3)c1)(C1CCC1)C(C#N)=C(N)O2 (stereo not shown) [Compound 2.495],> 8.00

row,SMILES,pEC50
1,Cc1n[nH]c2c1C(c1cc(Cl)c(Cl)c(Cl)c1)(C1CCC1)C(C#N)=C(N)O2 (stereo not shown) [Compound 2.209.],> 8.00
2,CCCC1(c2cc(C#N)cc(C(F)(F)F)c2)C(C#N)=C(N)Oc2[nH]nc(CC)c21 (stereo not shown) [Compound 2.575],> 8.00
3,CCc1n[nH]c2c1C(CC)(c1ccc(Oc3ccccc3)cc1)C(C#N)=C(N)O2 (stereo not shown) [Compound 2.130.],> 6.00
4,CCC1(c2ccc(C(C)(C)C)cc2)C(C#N)=C(N)Oc2[nH]nc(C)c21 (stereo not shown) [Compound 2.7.],> 5.00
5,N#CC1=C(N)Oc2[nH]nc(C3CC3)c2C1(c1cccc(C(F)(F)F)c1)C1CCC1 (stereo not shown) [Compound 2.171.],> 7.00
6,COC(=O)c1ccc(-c2cc(C#N)cc(C3(C4CCC4)C(C#N)=C(N)Oc4[nH]nc(OC)c43)c2)cc1 (stereo not shown) [Compound 2.454],> 6.00
7,COc1c(Cl)cc(C2(C3CCC3)C(C#N)=C(N)Oc3[nH]nc(C)c32)cc1C#N (stereo not shown) [Compound 2.487],> 8.00
8,Cc1n[nH]c2c1C(c1cc(C#N)cc(OCC(=O)O)c1)(C1CCC1)C(C#N)=C(N)O2 (stereo not shown) [Compound 2.625],> 7.00
9,CCc1n[nH]c2c1C(CC)(c1cc(Cl)cc(C#N)c1)C(C#N)=C(N)O2 (stereo not shown) [Compound 2.573],> 7.00
10,CCCc1n[nH]c2c1C(CC)(c1cc(Cl)cc(Cl)c1)C(C#N)=C(N)O2 (stereo not shown) [Compound 2.110.],> 6.00
11,Cc1n[nH]c2c1C(c1cc(Cl)cc(-c3ccc(C(=O)O)cc3)c1)(C1CCC1)C(C#N)=C(N)O2 (stereo not shown) [Compound 2.483],> 8.00
12,N#CC1=C(N)Oc2[nH]nc(CO)c2C1(c1cc(C(F)(F)F)cc(C(F)(F)F)c1)C1(F)CC1 (stereo not shown) [Compound 2.465],> 7.00
13,Cc1n[nH]c2c1C(CC(C)C)(c1cccc(Cl)c1)C(C#N)=C(N)O2 (stereo not shown) [Compound 2.126.],> 6.00
14,CCCC1(c2cc(Br)cc(C#N)c2)C(C#N)=C(N)Oc2[nH]nc(C(F)F)c21 (stereo not shown) [Compound 2.609],> 7.00
15,CCOC(=O)COc1cc(Cl)cc(C2(C3CCC3)C(C#N)=C(N)Oc3[nH]nc(C)c32)c1 (stereo not shown) [Compound 2.480],> 7.00
16,CCC1(c2ccc(OC(C)(C)C)cc2)C(C#N)=C(N)Oc2[nH]nc(C)c21 (racemic) [Compound 2.27.],> 5.00
17,COc1c(F)cc(C2(C3CCC3)C(C#N)=C(N)Oc3[nH]nc(C)c32)cc1F (stereo not shown) [Compound 2.447],> 8.00

# Same assay, conditions: inhibition of initial velocity of Arabidopsis thaliana SHMT
row,SMILES,pEC50
1,Cc1ccc(-c2ccc(C3(C4CCC4)C(C#N)=C(N)Oc4[nH]nc(C)c43)s2)cc1 (stereo not shown) [Compound 4.13],> 8.00
2,Cc1n[nH]c2c1C(c1nc3c(Br)cccc3o1)(C1CCC1)C(C#N)=C(N)O2 (racemic) [Compound 4.58],> 7.00
3,Cc1n[nH]c2c1C(c1ccc(-c3cccc(F)c3)s1)(C1CC1)C(C#N)=C(N)O2 (stereo not shown) [Compound 4.56],> 7.00
4,Cc1n[nH]c2c1C(c1ccc3c(c1)nnn3C)(C1CCC1)C(C#N)=C(N)O2 (stereo not shown) [Compound 4.49],> 7.00
5,Cc1n[nH]c2c1C(c1cc(-c3ccsc3)cs1)(C1CCC1)C(C#N)=C(N)O2 (stereo not shown) [Compound 4.33],> 8.00
6,CCC1(c2ccc3c(c2)C(C)(C)CCC3(C)C)C(C#N)=C(N)Oc2[nH]nc(C)c21 (stereo not shown) [Compound 4.69],> 6.00
7,CCC1(c2cc(F)c(F)cc2F)C(C#N)=C(N)Oc2[nH]nc(C)c21 (stereo not shown) [Compound 3.3],> 5.00
8,COc1c(F)cc(-c2ccc(C3(C4CCC4)C(C#N)=C(N)Oc4[nH]nc(C)c43)s2)cc1F (stereo not shown) [Compound 4.50],> 7.00
9,Cc1n[nH]c2c1C(c1ccc(-c3cccs3)s1)(C1CCC1)C(C#N)=C(N)O2 (stereo not shown) [Compound 4.1],> 8.00
10,Cc1n[nH]c2c1C(c1ccc(C(=O)O)s1)(C1CCC1)C(C#N)=C(N)O2 (stereo not shown) [Compound 4.80],> 5.00
11,CC1(C)C=Cc2cc(C3(C4CCC4)C(C#N)=C(N)Oc4[nH]ncc43)cc(F)c2O1 (stereo not shown) [Compound 4.31],> 8.00
12,Cc1n[nH]c2c1C(c1ccc(-c3cccc(C(F)(F)F)c3)s1)(C1CCC1)C(C#N)=C(N)O2 (stereo not shown) [Compound 4.43],> 8.00
